Data from EPA's ToxValDB 9.5 (doi:10.2903/j.efsa.2007.107r).

How the values were obtained:
Typhlodromus pyri = assay: LR50; higher = less toxic; conditions: acute; duration: 7 days; reproduction
Daphnia magna = conditions: chronic/long-term; duration: 21 days
Oryctolagus sp. = conditions: developmental; development
Tagia sp. = conditions: acute; duration: 14 days; mortality
Apis mellifera = conditions: acute; oral; unspecified; mortality

For `CC(C)OC(=O)N[C@H](C(=O)N[C@H](C)c1nc2ccc(F)cc2s1)C(C)C` [Benthiavalicarb-isopropyl], which LR50 (Typhlodromus pyri) is on record?
Its LR50 is 290 g/ha.

What about the NOEC (Daphnia magna) of the same compound?
Its NOEC is 3 mg/L.

And the NOAEL (Oryctolagus sp.)?
Its NOAEL is 20 mg/kg-day.

What about the LC50 (Colinus virginianus; acute, oral, diet, mortality) of the same compound?
Its LC50 is greater than 937 mg/kg-day.

What about the LD50 (Colinus virginianus; acute, oral, mortality) of the same compound?
Its LD50 is greater than 2000 mg/kg.

What about the NOEL (Colinus virginianus; reproduction developmental, duration: 24 weeks) of the same compound?
The NOEL was 105 mg/kg-day.

And the LD50 (Rattus norvegicus; acute, oral, mortality)?
Its LD50 is greater than 5000 mg/kg.

And the NOAEL (Rattus norvegicus; chronic, duration: 2 years, clinical chemistry)?
Its NOAEL is 9.9 mg/kg-day.

And the NOAEL (Rattus norvegicus; reproduction developmental, organ weight)?
Its NOAEL is 10 mg/kg-day.

What about the LC50 (Tagia sp.) of the same compound?
Its LC50 is greater than 500 mg/kg.

What about the LC50 (Oncorhynchus mykiss; acute, duration: 96 hours, mortality) of the same compound?
Its LC50 is greater than 10 µg/mL.

And the NOEC (Oncorhynchus mykiss; chronic/long-term, duration: 28 days)?
The NOEC was 1 mg/L.

And the LD50 (Apis mellifera)?
Its LD50 is greater than 100 µg/piece.
